Source: ChEMBL document CHEMBL4507295 (2021)

Key:
[1] = target: Myosin light chain kinase family member 4 (Homo sapiens) (UniProt Q86YV6); conditions: Compound concentration 1000.0 nM
[2] = target: Serine/threonine-protein kinase D3 (Homo sapiens) (UniProt O94806); conditions: Compound concentration 1000.0 nM
[3] = target: Tyrosine-protein kinase Lck (Homo sapiens) (UniProt P06239); conditions: Compound concentration 1000.0 nM
[4] = target: BMP-2-inducible protein kinase (Homo sapiens) (UniProt Q9NSY1); conditions: Compound concentration 1000.0 nM
[5] = target: Serine/threonine-protein kinase Sgk2 (Homo sapiens) (UniProt Q9HBY8); conditions: Compound concentration 1000.0 nM
[6] = target: Serine/threonine-protein kinase PAK 1 (Homo sapiens) (UniProt Q13153); conditions: Compound concentration 1000.0 nM
[7] = target: Misshapen-like kinase 1 (Homo sapiens) (UniProt Q8N4C8); conditions: Compound concentration 1000.0 nM
[8] = system: Phosphatidylinositol 4,5-bisphosphate 3-kinase catalytic subunit alpha isoform (Homo sapiens), P42336 [Q546K]; conditions: Compound concentration 1000.0 nM
[9] = target: Cyclin-dependent kinase 4 (Homo sapiens) (UniProt P11802); conditions: Compound concentration 1000.0 nM
[10] = target: Activin receptor type-1B (Homo sapiens) (UniProt P36896); conditions: Compound concentration 1000.0 nM
[11] = target: Phosphorylase b kinase regulatory subunit alpha, liver isoform (Homo sapiens) (UniProt P46019); conditions: Compound concentration 1000.0 nM
[12] = target: Ribosomal protein S6 kinase alpha-5 (Homo sapiens) (UniProt O75582); conditions: Compound concentration 1000.0 nM
[13] = system: Receptor-type tyrosine-protein kinase FLT3 (Homo sapiens), P36888 [R834Q]; conditions: Compound concentration 1000.0 nM
[14] = target: Sigma non-opioid intracellular receptor 1 (Homo sapiens) (UniProt Q99720); conditions: Compound concentration 10.0 uM
[15] = target: Fibroblast growth factor receptor 1 (Homo sapiens) (UniProt P11362); conditions: Compound concentration 1000.0 nM
[16] = target: Serine/threonine-protein kinase TBK1 (Homo sapiens) (UniProt Q9UHD2); conditions: Compound concentration 1000.0 nM
[17] = system: Receptor-type tyrosine-protein kinase FLT3 (Homo sapiens), P36888 [UNDEFINED MUTATION]; conditions: Compound concentration 1000.0 nM
[18] = target: BDNF/NT-3 growth factors receptor (Homo sapiens) (UniProt Q16620); conditions: Compound concentration 1000.0 nM
[19] = target: Mitogen-activated protein kinase 7 (Homo sapiens) (UniProt Q13164); conditions: Compound concentration 1000.0 nM
[20] = target: Membrane-associated tyrosine- and threonine-specific cdc2-inhibitory kinase (Homo sapiens) (UniProt Q99640); conditions: Compound concentration 1000.0 nM
[21] = target: Myosin light chain kinase (Homo sapiens) (UniProt Q32MK0); conditions: Compound concentration 1000.0 nM
[22] = target: Calcium/calmodulin-dependent protein kinase kinase 2 (Homo sapiens) (UniProt Q96RR4); conditions: Compound concentration 1000.0 nM
[23] = target: Death-associated protein kinase 3 (Homo sapiens) (UniProt O43293); conditions: Compound concentration 1000.0 nM
[24] = target: Ankyrin repeat and protein kinase domain-containing protein 1 (Homo sapiens) (UniProt Q8NFD2); conditions: Compound concentration 1000.0 nM
[25] = target: Serine/threonine-protein kinase tousled-like 2 (Homo sapiens) (UniProt Q86UE8); conditions: Compound concentration 1000.0 nM
[26] = target: T1, Muscarinic acetylcholine receptor M1 (Homo sapiens) (UniProt P11229); conditions: Compound concentration 10.0 uM
T1 sequence (whole entry): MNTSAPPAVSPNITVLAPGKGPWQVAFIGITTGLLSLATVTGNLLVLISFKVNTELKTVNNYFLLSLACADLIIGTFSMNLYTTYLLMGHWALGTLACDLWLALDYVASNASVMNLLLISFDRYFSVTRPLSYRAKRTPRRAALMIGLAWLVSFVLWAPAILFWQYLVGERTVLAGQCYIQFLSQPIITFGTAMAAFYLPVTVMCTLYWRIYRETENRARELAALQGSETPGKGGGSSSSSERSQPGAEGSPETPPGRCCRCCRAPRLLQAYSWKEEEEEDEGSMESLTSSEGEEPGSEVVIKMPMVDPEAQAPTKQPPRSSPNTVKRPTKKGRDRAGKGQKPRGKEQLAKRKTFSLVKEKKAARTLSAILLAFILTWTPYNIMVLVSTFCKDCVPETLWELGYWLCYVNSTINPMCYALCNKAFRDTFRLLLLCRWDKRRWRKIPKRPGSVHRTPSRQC

[27] = target: STE20-like serine/threonine-protein kinase (Homo sapiens) (UniProt Q9H2G2); conditions: Compound concentration 1000.0 nM
[28] = system: Epidermal growth factor receptor (Homo sapiens), P00533 [G719S]; conditions: Compound concentration 1000.0 nM
[29] = target: Serine/threonine-protein kinase 26 (Homo sapiens) (UniProt Q9P289); conditions: Compound concentration 1000.0 nM
[30] = target: Cyclin-dependent kinase 17 (Homo sapiens) (UniProt Q00537); conditions: Compound concentration 1000.0 nM
[31] = system: eIF-2-alpha kinase GCN2 (Homo sapiens), Q9P2K8 [S808G]; conditions: Compound concentration 1000.0 nM
[32] = target: Angiopoietin-1 receptor (Homo sapiens) (UniProt Q02763); conditions: Compound concentration 1000.0 nM
[33] = system: Receptor-type tyrosine-protein kinase FLT3 (Homo sapiens), P36888 [UNDEFINED MUTATION]; conditions: Compound concentration 1000.0 nM; remark: listed apart in the source
[34] = target: Calcium/calmodulin-dependent protein kinase kinase 1 (Homo sapiens) (UniProt Q8N5S9); conditions: Compound concentration 1000.0 nM
[35] = target: Cyclin-dependent kinase 16 (Homo sapiens) (UniProt Q00536); conditions: Compound concentration 1000.0 nM
[36] = target: Sigma intracellular receptor 2 (Homo sapiens) (UniProt Q5BJF2); conditions: Compound concentration 10.0 uM
[37] = target: Dual specificity testis-specific protein kinase 1 (Homo sapiens) (UniProt Q15569); conditions: Compound concentration 1000.0 nM
[38] = target: Vascular endothelial growth factor receptor 2 (Homo sapiens) (UniProt P35968); conditions: Compound concentration 1000.0 nM
[39] = system: Epidermal growth factor receptor (Homo sapiens), P00533 [L861Q]; conditions: Compound concentration 1000.0 nM

Chain of Ribosomal protein S6 kinase alpha-5 (Homo sapiens) (O75582 whole entry, looked up): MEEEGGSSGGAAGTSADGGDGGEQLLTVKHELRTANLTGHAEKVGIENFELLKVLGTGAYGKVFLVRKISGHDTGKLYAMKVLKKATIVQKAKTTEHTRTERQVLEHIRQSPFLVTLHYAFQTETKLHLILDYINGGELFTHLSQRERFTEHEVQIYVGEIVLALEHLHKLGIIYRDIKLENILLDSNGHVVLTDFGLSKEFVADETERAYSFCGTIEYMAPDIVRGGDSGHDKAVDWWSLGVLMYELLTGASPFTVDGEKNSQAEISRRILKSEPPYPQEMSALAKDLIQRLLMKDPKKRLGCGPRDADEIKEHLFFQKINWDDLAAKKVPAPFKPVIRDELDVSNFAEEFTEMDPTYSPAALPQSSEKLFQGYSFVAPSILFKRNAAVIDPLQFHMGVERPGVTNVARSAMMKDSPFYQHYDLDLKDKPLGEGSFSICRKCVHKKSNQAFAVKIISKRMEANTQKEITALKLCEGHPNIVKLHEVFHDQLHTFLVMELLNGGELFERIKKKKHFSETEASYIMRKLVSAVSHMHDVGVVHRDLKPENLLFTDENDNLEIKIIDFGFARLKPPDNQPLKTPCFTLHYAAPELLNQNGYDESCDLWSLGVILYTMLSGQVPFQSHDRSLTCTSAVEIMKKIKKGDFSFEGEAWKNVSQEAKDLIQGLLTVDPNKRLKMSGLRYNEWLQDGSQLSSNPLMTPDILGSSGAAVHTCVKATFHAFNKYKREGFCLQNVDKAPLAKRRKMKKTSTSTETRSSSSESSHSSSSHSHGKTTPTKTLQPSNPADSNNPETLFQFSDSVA
Chain of Sigma non-opioid intracellular receptor 1 (Homo sapiens) (Q99720 whole entry): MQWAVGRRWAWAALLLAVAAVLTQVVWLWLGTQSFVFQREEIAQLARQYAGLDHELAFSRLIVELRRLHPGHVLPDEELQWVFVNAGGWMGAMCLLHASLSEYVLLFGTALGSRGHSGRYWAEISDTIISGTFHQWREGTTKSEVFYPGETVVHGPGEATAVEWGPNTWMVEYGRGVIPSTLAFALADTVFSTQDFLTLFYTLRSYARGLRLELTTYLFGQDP
Chain of Dual specificity testis-specific protein kinase 1 (Homo sapiens) (Q15569 whole entry, looked up): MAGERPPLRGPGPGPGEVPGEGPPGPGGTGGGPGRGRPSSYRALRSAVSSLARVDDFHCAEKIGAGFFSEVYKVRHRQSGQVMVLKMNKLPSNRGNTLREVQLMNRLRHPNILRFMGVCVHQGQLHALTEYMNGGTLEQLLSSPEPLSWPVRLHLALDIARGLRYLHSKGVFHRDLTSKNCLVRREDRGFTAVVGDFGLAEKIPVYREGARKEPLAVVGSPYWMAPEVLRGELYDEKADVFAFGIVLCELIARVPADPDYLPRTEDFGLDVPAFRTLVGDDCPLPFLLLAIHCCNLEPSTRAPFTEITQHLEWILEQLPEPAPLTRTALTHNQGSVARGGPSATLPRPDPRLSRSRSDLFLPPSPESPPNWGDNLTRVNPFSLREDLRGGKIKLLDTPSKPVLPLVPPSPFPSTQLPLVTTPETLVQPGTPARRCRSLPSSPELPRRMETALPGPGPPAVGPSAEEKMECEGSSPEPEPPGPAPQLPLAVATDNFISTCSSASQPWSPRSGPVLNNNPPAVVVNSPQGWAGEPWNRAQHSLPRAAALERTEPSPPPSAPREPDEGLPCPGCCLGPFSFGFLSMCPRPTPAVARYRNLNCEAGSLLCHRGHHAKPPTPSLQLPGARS
Chain of Ankyrin repeat and protein kinase domain-containing protein 1 (Homo sapiens) (Q8NFD2 whole entry, the tested form may be a part): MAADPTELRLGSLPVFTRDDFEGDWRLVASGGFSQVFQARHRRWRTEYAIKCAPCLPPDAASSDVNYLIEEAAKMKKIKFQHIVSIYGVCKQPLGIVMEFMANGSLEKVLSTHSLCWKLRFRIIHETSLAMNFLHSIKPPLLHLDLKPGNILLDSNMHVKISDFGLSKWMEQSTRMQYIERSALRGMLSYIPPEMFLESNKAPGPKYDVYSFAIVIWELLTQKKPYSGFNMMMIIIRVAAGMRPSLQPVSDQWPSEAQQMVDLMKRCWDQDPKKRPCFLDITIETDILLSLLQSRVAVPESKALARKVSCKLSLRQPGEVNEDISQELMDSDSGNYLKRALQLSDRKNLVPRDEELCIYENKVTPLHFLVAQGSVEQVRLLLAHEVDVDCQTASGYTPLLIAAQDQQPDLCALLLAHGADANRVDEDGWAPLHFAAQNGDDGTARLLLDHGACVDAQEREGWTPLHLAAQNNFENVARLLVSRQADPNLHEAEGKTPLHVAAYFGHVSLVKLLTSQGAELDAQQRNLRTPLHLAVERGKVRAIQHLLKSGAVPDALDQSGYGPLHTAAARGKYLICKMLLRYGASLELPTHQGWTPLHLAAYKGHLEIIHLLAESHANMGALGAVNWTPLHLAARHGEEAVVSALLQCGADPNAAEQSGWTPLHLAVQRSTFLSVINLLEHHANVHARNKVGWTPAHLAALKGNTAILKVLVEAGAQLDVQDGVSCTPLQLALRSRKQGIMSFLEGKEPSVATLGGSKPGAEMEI
Chain of Fibroblast growth factor receptor 1 (Homo sapiens) (P11362 22-822 limits assumed): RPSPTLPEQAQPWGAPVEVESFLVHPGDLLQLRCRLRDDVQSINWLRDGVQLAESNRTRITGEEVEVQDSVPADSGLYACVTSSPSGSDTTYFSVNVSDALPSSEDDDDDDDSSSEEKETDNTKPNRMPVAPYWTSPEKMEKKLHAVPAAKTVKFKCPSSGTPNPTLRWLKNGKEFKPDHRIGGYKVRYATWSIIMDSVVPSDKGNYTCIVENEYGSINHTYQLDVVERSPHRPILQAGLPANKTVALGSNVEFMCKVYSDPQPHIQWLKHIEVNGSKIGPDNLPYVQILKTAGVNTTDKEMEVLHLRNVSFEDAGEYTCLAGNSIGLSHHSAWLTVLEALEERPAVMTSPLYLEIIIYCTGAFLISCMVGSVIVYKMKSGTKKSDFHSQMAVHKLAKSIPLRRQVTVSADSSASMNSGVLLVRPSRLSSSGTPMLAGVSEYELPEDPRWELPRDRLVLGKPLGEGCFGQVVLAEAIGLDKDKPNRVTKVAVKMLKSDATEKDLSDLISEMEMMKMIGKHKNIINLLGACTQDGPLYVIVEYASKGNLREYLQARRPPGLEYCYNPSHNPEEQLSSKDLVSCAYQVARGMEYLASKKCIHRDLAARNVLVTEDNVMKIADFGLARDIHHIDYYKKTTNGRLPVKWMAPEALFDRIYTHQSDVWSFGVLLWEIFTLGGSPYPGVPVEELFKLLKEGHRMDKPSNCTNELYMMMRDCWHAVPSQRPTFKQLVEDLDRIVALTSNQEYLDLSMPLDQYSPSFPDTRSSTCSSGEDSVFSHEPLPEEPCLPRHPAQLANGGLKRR
Chain of Phosphorylase b kinase regulatory subunit alpha, liver isoform (Homo sapiens) (P46019 whole entry, canonical isoform): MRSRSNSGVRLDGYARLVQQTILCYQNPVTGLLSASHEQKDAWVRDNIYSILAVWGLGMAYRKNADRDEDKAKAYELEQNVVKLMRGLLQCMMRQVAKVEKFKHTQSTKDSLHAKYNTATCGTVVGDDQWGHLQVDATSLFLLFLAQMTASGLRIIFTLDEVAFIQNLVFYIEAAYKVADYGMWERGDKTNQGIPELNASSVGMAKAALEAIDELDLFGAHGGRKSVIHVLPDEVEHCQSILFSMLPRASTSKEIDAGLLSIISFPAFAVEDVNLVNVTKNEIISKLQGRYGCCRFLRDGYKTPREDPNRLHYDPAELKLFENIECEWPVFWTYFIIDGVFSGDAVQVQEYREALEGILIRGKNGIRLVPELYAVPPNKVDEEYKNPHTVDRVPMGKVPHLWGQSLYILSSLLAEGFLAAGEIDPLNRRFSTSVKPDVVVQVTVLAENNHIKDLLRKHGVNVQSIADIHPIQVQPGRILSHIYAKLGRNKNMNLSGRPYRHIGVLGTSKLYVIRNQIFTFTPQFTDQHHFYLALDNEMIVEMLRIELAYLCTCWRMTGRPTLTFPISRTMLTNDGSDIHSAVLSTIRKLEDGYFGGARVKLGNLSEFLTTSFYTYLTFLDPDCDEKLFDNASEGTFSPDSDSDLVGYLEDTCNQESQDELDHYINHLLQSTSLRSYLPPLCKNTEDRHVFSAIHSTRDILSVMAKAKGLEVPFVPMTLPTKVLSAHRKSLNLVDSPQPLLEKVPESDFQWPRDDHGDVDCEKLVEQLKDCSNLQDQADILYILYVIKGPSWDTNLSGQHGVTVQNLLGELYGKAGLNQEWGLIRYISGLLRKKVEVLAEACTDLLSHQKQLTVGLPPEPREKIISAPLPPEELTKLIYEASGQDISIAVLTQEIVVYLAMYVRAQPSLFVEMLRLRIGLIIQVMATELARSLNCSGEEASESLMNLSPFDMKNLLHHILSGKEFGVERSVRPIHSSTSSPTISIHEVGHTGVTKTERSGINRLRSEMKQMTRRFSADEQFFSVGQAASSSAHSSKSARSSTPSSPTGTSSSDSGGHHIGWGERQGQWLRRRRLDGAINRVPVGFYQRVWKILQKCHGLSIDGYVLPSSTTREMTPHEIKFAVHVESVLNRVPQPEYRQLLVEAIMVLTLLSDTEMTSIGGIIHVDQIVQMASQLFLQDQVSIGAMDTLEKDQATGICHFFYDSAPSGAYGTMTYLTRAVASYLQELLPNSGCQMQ
Chain of Membrane-associated tyrosine- and threonine-specific cdc2-inhibitory kinase (Homo sapiens) (Q99640 whole entry): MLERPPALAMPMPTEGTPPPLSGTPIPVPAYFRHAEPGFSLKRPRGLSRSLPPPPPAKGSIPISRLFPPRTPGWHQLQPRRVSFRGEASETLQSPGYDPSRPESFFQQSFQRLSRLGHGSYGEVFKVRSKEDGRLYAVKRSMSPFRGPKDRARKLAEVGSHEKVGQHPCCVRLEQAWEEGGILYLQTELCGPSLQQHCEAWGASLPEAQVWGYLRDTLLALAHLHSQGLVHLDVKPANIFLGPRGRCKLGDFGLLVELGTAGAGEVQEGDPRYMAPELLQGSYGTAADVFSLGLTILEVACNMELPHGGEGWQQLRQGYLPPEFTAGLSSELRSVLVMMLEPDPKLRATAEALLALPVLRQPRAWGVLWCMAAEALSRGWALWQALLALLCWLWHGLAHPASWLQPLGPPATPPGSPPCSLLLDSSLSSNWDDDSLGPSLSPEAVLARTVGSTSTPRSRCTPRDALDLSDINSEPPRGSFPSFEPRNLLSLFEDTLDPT

N#CC1(c2ccccn2)CCN(Cc2cc(C(=O)O)c(=O)n3ccccc23)CC1 [MSD-M1PAM]
inactive: residual activity [1] 100% | residual activity [2] 98% | residual activity [3] 97% | residual activity [4] 95% | residual activity [5] 86% | residual activity [6] 86% | residual activity [7] 92% | residual activity [8] 58% | residual activity [9] 94% | residual activity [10] 94% | residual activity [11] 100% | residual activity [12] 100% | residual activity [13] 100% | inhibition [14] 29.1% | residual activity [15] 98% | residual activity [16] 98% | residual activity [17] 92% | residual activity [18] 84% | residual activity [19] 94% | residual activity [20] 100% | residual activity [21] 87% | residual activity [22] 100% | residual activity [23] 95% | residual activity [24] 68% | residual activity [25] 98% | inhibition [26] -1% | residual activity [27] 99% | residual activity [28] 90% | residual activity [29] 100% | residual activity [30] 96% | residual activity [31] 100% | residual activity [32] 95% | residual activity [33] 100% | residual activity [34] 100% | residual activity [35] 67% | inhibition [36] 5.17% | residual activity [37] 100% | residual activity [38] 79% | residual activity [39] 100%

N#CC1(c2ccccn2)CCN(Cc2cc(C(=O)N3CCCC3)c(=O)n3ccccc23)CC1
inactive: residual activity [1] 95% | residual activity [2] 100% | residual activity [3] 100% | residual activity [4] 92% | residual activity [5] 100% | residual activity [6] 100% | residual activity [7] 89% | residual activity [8] 94% | residual activity [9] 91% | residual activity [10] 69% | residual activity [11] 85% | residual activity [12] 88% | residual activity [13] 100% | inhibition [14] 16.3% | residual activity [15] 93% | residual activity [16] 99% | residual activity [17] 100% | residual activity [18] 93% | residual activity [19] 63% | residual activity [20] 79% | residual activity [21] 76% | residual activity [22] 100% | residual activity [23] 86% | residual activity [24] 79% | residual activity [25] 100% | inhibition [26] -2.01% | residual activity [27] 100% | residual activity [28] 100% | residual activity [29] 100% | residual activity [30] 82% | residual activity [31] 78% | residual activity [32] 85% | residual activity [33] 90% | residual activity [34] 100% | residual activity [35] 100% | inhibition [36] 24.1% | residual activity [37] 90% | residual activity [38] 92% | residual activity [39] 79%
